Values of other authors, collected in patent US7160560B2, “Skin-care composition” (L'Oreal S.A., priority 2003, dated 2007).

In the case of `CC1=N[C@H](C(=O)O)CCN1` [ectoin, (s)-1,4,5,6-tetrahydro-2-methyl-4-pyrimidinecarboxylic acid], the “signaling cascade brought about by UVA-radiation” value (human keratinocytes) is given as “inhibits” and the “UVA radiation-induced formation of mitochondrial DNA mutations” value (human dermal fibroblasts) is given as “inhibits”.
